Experimental data as given in patent publication US20160045449A1, “Formulations and Methods for Attenuating Respiratory Depression Induced by Opioid Overdose” (Alpharma Pharmaceuticals LLC, priority 2010, published 2016).
Where a name gives a salt, the structure may show the parent alone.

What was measured:
[1] = in comparison to a 15 mg dose of hydrocodone
[2] = patients; versus equivalent dose of morphine; cited from earlier work
[3] = cited from earlier work
[4] = after oral administration; cited from earlier work
[5] = cited from earlier work; remark: listed apart in the source
[6] = Example 4: six-way crossover study, naltrexone (12% w/w) on oxycodone-induced euphoria, with pulse oximetry (SpO2); format: in vivo, human
Source text: As a safety component of this study, pulse oximetry was monitored routinely to monitor for signs and symptoms of oxycodone-induced respiratory depression.

Question: Which equianalgesic calculated dose [1] does the source give for `COc1ccc2c3c1O[C@H]1[C@@H](O)C=C[C@H]4[C@@H](C2)N(C)CC[C@@]341` [codeine] here?
Answer: The equianalgesic calculated dose was 90.0 mg.

Question: Which equianalgesic calculated dose [1] does the source give for `CCC(=O)C(CC(C)N(C)C)(c1ccccc1)c1ccccc1` (stereo not shown) [methadone] here?
Answer: Its equianalgesic calculated dose is 9.0 mg.

Question: For `COc1ccc2c3c1O[C@H]1C(=O)CC[C@@]4(O)[C@@H](C2)N(C)CC[C@]314` [oxycodone], which equianalgesic calculated dose [1] is on record?
Answer: The equianalgesic calculated dose was 13.5 mg.

Question: And the “extent and speed of onset of induced respiratory depression” value [2]?
Answer: Its value is “dose dependent and greater than an equivalent dose of morphine”.

Question: For `O=C1CC[C@@]2(O)[C@H]3Cc4ccc(O)c5c4[C@@]2(CCN3CC2CC2)[C@H]1O5` [naltrexone HCl, naltrexone hydrochloride], which solubility in water [3] is on record?
Answer: Its solubility in water is “about 100 mg/cc”.

Question: For `CN1CC[C@]23CCCC[C@H]2[C@H]1Cc1ccc(O)cc13` [levorphanol], which equianalgesic calculated dose [1] is on record?
Answer: Its equianalgesic calculated dose is 1.8 mg.

Question: For `C[C@H]1[C@H]2Cc3ccc(O)cc3[C@]1(C)CCN2CC1CC1` [cyclazocine], which duration of action [4] is on record?
Answer: The duration of action was roughly 24 h.

Question: With `O=C1CC[C@@]2(O)[C@H]3Cc4ccc(O)c5c4[C@@]2(CCN3CC2CC2)[C@H]1O5` [naltrexone] as the compound, how does the duration of action [4] read?
Answer: Its duration of action is roughly 24 h.

Question: And the “time of absorption following oral administration (rapidly absorbed)” value [5]?
Answer: Its value is no more than 1 h.

Question: What about the oral bioavailability ([5]; oral administration) of the same compound?
Answer: Its oral bioavailability is 5-40%.

Question: What about the “effect on euphoric effects of oxycodone” value ([6]; oral oxycodone 60 mg + naltrexone 7.2 mg (12%)) of the same compound?
Answer: The value was “abating the euphoric effects of oxycodone 60 mg”.

Question: What about the “effect on respiratory depressant effects of oxycodone (SpO2, pulse oximetry)” value ([6]; oral oxycodone 60 mg + naltrexone 7.2 mg (12%) vs oxycodone 60 mg and placebo, opioid-experienced adult subjects) of the same compound?
Answer: Its value is “attenuated the respiratory depressant effects of oxycodone”.

Question: For `COc1ccc2c3c1OC1C(=O)CC[C@H]4[C@@H](C2)N(C)CC[C@]314` (stereo partly shown) [hydrocodone, 4,5-epoxy-3-methoxy-17-methylmorphinan-6-one], which equianalgesic calculated dose [1] is on record?
Answer: Its equianalgesic calculated dose is 15.0 mg.
